Assay results reported in ChEMBL document CHEMBL5120855, “Potent 2,3-dihydrophthalazine-1,4-dione derivatives as dual inhibitors for mono-ADP-ribosyltransferases PARP10 and PARP15” (Eur J Med Chem, 2022).

Tests used:
[1] = biological target: Protein mono-ADP-ribosyltransferase PARP14 (Homo sapiens, UniProt Q460N5); test: Inhibition of human PARP14 using NAD+ as substrate incubated for 10 mins by fluorescence based analysis
[2] = biological target: Poly [ADP-ribose] polymerase 2 (Homo sapiens, UniProt Q9UGN5); test: Inhibition of human PARP2 using NAD+ as substrate incubated for 10 mins by fluorescence based analysis
Poly [ADP-ribose] polymerase 2, sequence (Q9UGN5 whole entry, the tested form may be a part): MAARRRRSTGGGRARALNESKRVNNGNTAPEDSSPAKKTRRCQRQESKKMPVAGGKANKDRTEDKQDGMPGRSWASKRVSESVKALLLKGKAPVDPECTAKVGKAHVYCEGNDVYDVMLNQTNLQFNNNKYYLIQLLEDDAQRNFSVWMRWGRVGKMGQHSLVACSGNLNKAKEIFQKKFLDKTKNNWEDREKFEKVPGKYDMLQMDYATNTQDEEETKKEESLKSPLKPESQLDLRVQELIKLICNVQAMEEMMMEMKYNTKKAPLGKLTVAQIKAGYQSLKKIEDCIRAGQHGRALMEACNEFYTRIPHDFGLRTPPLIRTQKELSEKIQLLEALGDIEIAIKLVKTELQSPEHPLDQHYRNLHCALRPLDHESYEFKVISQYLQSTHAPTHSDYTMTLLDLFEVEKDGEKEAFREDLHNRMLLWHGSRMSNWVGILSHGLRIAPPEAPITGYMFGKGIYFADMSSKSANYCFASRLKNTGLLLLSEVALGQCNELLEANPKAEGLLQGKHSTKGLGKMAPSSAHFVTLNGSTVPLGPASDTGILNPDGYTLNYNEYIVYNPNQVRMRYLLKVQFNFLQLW

[3] = biological target: T1, Poly [ADP-ribose] polymerase tankyrase-2 (Homo sapiens, UniProt Q9H2K2); test: Inhibition of human N-terminal 6His-tagged TNKS2 (1030 to 1317 residues) expressed in Escherichia coli Rosetta2 (DE3) cells using NAD+ as substrate incubated for 10 mins by fluorescence based analysis
T1 sequence (Q9H2K2 whole entry): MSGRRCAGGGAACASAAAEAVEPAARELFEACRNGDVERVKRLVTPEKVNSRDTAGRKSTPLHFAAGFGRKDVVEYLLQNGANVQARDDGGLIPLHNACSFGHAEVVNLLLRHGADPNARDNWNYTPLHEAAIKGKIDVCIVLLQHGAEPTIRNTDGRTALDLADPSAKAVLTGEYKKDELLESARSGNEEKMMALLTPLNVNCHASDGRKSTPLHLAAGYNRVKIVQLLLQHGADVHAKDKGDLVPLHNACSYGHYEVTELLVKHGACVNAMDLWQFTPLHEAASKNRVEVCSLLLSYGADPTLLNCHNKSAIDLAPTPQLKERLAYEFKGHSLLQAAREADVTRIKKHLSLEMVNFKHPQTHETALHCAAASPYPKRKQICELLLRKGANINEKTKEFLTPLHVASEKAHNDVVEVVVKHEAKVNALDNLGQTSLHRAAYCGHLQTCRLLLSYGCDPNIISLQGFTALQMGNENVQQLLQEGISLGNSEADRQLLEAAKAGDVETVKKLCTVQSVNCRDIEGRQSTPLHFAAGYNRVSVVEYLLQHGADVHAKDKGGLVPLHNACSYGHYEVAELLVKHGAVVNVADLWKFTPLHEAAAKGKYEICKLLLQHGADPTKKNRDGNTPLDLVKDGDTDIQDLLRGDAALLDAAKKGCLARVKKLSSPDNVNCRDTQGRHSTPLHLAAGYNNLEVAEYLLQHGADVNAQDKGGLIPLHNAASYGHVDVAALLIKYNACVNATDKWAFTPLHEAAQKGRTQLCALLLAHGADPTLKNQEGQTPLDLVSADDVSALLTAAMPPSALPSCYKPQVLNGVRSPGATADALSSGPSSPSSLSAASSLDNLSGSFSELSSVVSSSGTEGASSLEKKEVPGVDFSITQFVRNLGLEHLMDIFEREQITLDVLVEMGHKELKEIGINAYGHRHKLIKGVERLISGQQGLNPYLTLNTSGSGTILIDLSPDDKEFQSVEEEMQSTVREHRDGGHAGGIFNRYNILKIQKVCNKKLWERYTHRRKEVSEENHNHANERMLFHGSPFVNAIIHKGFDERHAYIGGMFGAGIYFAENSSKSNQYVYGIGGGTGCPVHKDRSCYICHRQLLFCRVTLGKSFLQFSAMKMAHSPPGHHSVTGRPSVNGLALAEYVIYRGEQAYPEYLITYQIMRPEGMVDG

[4] = biological target: Poly [ADP-ribose] polymerase 1 (Homo sapiens, UniProt P09874); test: Inhibition of human PARP-1 using NAD+ as substrate incubated for 10 mins by fluorescence based analysis
Poly [ADP-ribose] polymerase 1, sequence (P09874 whole entry): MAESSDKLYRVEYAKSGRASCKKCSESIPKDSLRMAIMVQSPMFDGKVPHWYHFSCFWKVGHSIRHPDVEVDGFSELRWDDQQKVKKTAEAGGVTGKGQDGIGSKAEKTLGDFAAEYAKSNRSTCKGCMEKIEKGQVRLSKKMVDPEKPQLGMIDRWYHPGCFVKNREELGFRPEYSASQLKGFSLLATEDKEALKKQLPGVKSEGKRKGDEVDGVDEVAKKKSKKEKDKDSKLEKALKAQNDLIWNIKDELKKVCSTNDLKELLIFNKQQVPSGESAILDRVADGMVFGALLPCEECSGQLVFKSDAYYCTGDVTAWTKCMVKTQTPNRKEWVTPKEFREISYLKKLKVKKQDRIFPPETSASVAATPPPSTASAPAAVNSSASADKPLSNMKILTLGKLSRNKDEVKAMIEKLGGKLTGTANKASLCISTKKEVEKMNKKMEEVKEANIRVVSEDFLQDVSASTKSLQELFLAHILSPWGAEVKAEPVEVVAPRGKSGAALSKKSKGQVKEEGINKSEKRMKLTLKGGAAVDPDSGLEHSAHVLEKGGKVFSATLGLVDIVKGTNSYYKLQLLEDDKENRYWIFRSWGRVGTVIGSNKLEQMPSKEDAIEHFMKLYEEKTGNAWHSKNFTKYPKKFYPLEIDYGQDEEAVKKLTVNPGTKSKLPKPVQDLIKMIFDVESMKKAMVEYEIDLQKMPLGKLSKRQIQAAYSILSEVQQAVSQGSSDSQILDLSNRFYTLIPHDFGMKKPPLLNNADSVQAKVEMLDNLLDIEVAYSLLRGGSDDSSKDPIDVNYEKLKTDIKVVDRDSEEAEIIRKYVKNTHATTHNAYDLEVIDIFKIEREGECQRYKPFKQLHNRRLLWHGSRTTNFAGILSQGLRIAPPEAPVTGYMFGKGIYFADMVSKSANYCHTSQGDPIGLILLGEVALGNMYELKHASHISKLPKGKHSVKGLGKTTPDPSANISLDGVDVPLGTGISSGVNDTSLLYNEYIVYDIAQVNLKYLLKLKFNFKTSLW

[5] = biological target: T2, Poly [ADP-ribose] polymerase tankyrase-1 (Homo sapiens, UniProt O95271); test: Inhibition of human TNKS1
T2 sequence (O95271 whole entry): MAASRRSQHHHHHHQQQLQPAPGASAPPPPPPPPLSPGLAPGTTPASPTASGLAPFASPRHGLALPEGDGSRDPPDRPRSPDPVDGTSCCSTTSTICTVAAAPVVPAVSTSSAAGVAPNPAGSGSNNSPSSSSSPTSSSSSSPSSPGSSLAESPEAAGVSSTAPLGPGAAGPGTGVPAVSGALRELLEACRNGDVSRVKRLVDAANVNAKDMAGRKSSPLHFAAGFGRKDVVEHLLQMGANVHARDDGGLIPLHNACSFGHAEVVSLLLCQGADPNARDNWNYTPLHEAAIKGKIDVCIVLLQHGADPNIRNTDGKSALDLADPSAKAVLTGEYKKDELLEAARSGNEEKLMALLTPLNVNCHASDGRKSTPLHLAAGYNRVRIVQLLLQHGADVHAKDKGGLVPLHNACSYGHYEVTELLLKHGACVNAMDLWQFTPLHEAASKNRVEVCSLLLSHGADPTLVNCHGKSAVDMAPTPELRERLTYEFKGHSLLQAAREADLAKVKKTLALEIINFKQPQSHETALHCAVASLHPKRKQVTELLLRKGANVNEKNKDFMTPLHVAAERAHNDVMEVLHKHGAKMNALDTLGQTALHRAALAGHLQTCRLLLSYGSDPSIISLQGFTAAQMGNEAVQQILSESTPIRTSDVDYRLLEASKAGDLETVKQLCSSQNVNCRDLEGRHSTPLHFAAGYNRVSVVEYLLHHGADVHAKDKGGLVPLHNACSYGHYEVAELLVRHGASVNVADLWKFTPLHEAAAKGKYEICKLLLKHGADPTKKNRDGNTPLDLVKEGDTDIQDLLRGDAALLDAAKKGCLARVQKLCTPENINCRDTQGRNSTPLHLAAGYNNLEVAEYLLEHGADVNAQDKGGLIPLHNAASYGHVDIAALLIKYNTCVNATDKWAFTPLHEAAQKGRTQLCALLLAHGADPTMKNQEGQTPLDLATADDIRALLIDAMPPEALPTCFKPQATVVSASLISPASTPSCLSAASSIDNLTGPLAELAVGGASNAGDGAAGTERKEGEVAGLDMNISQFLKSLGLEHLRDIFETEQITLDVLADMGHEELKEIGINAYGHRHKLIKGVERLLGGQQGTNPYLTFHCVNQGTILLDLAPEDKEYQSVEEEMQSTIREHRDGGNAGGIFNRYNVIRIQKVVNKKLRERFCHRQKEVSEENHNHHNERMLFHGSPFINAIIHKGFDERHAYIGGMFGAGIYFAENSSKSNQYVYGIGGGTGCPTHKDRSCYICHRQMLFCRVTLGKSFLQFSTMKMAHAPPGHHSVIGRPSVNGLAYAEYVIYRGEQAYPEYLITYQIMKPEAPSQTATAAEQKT

Protein mono-ADP-ribosyltransferase PARP14, sequence (Q460N5 whole entry): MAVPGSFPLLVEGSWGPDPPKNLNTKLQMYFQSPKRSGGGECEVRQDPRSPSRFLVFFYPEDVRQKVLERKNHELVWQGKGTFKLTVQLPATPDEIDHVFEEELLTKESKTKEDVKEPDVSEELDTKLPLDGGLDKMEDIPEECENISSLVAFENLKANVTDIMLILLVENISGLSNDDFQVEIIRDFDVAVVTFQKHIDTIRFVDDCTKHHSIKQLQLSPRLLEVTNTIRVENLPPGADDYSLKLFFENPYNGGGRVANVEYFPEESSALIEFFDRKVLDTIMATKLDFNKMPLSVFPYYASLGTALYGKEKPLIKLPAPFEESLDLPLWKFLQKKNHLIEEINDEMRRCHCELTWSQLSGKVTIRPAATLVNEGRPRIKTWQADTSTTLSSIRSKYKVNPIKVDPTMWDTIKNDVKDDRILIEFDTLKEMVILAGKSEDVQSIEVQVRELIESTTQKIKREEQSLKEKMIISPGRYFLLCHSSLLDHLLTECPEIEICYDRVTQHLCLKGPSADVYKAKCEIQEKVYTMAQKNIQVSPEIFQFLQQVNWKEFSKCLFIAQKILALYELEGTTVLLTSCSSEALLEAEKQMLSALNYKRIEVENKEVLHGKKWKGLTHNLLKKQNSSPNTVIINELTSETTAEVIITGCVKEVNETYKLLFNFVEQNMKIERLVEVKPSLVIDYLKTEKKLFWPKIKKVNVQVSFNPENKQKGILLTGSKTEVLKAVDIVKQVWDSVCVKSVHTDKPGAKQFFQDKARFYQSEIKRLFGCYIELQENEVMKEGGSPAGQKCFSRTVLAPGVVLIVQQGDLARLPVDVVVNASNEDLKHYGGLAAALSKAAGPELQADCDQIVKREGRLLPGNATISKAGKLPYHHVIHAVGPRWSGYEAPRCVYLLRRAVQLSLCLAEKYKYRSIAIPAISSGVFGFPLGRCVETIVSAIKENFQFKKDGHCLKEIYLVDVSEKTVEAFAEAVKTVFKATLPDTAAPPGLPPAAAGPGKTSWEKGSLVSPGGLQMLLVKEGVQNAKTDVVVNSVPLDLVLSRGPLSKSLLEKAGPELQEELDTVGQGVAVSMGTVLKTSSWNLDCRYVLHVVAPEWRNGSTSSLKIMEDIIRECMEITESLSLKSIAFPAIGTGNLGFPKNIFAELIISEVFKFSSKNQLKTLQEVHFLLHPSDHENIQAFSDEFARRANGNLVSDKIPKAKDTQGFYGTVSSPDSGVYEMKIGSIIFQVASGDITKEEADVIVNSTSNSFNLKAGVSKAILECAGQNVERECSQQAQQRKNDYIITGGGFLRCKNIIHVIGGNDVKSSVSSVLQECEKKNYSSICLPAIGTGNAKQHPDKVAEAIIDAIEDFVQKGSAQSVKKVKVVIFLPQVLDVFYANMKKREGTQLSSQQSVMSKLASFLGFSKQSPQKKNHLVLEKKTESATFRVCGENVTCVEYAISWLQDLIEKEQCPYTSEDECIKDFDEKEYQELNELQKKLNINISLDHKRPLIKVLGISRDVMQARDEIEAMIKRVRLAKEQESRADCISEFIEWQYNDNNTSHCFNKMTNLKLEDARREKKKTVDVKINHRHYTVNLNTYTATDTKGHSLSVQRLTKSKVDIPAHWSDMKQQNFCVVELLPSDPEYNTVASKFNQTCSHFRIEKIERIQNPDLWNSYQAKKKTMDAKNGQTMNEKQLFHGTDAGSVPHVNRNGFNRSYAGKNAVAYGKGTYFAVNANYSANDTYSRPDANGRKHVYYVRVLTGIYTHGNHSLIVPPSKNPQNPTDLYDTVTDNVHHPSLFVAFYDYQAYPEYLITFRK

- IC50 [1]: > 10 µM
- IC50 [2]: 38 µM
- IC50 [3]: > 100 µM
- IC50 [4]: > 100 µM
- IC50 [5]: > 100 µM
SMILES: NC(=O)c1ccc(OCC2CCC2)cc1
